According to patent US7202040B2, “Method for screening compounds which change the binding properties of a protein with a ligand” (Takeda Pharmaceutical Company Limited, priority 2001, dated 2007):

Legend:
[1] = target: T1, GPR34-expressed CHO cells (Homo sapiens, UniProt Q9UPC5); assay: Intracellular cAMP production inhibitory activity using GPR34-expressed CHO cells (forskolin-stimulated, cAMP EIA); type: cell-based; conditions: 2 μM forskolin, FIG. 1
T1 construct: expressed in transfected cells
T1 sequence (Q9UPC5 whole entry): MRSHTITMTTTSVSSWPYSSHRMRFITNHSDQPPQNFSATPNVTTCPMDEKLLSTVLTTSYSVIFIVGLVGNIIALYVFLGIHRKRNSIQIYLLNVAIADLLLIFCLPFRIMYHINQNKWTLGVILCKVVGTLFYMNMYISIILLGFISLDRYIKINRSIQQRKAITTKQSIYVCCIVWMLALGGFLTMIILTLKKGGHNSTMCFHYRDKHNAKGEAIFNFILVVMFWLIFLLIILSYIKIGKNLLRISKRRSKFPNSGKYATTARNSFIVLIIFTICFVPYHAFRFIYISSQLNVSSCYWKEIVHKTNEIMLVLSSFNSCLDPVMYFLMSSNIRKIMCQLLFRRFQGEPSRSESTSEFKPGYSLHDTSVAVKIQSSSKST
Protocol: The GPR34-expressed CHO cells prepared in (1-2) described above and selected in (1-2) described above were plated on a 24-well plate in 6×10^4 cells/well followed by incubation for 48 hours. The cells were washed with αMEM medium (pH 7.5) containing 0.2 mM 3-isobutyl-methylxanthine, 0.05% BSA and 20 mM HEPES (hereinafter αMEM medium (pH 7.5) containing 0.2 mM 3-isobutyl-methylxanthine, 0.05% BSA and 20 mM HEPES is referred to as the reaction buffer). Thereafter, 0.5 mL of the reaction buffer was added and the mixture was kept warm for 30 minutes in an incubator. The reaction buffer was removed and 0.25 mL of fresh reaction buffer was replenished to the cells. Then, 0.25 mL of the reaction buffer containing a sample and 2 μM forskolin was added to the cells, followed by reacting at 37° C. for 30 minutes. […] The cAMP level in the extract was quantified using the same kit. Based on this measurement data, the cAMP production inhibitory activity was calculated based on the equation shown below and expressed in terms of percentage to the control group. The activity in the group added with sample was calculated using each control value set on the same plate. % of control=(X−C)/(T−C)×100 wherein • X: cAMP level in the group added with sample • T: mean value of the cAMP levels in 3 wells of the groups without sample addition and with forskolin stimulation […]

[2] = system: other receptor expression cells; assay: cAMP production inhibitory activity on other receptor expression cells (specificity check); type: cell-based; conditions: receptor-specific
Protocol: The amino acid sequence of GPR34 is known to have low homology to the amino acid sequence of the platelet-activating factor receptor or the uridine diphosphate glycoside. Thus, various compounds including platelet-activating factor and uridine diphosphate glycoside, which are ligands to the receptors showing homology to GPR34, were administered to the GPR34-expressed CHO cells to examine the cAMP production inhibitory activity of these compounds on the GPR34-expressed CHO cells by the method shown in (1-4) described above.
The effect was not noted on the other receptor expression cells but was receptor-specific.

Substance	cAMP production inhibitory activity ([1]; 37° C. 30 minutes)	cAMP production inhibitory effect on other receptor expression cells [2]	cAMP production inhibitory activity ([1]; in a higher concentration)
lysophosphatidylserine	marked activities	not noted	
phosphatidylserine		not noted	marked activities
